The subject of one data set is A549 cells. The experiment in a line: Combination of RK-33 and radiation in A549 cells, Chou-Talalay analysis. It is filed as cell-based. The conditions noted are these: 4 and 6 μM RK-33 with 2 and 7 gray of radiation. The procedure:
FIG. 8 is a set of bar graphs depicting the effect of radiation and RK-33 on A549 cells. […] Experiments were performed in triplicate.
Clonogenic assays. About 1×10^5 A549 cells were treated with RK-33 (1-6 μM) and to increasing dose of IR (1-20 Gy). After 24 hours, 500 cells from each combination treatment will be plated into a 6-well plate. Following incubation for 1-3 weeks, colonies were fixed in glutaraldehyde (6.0% v/v), stained with crystal violet (0.5% w/v) and counted using a stereomicroscope. Clusters of >50 cells (i.e., six cell doubling times) were scored as colonies. The amount of radiosensitization by RK-33 was determined using the Chou-Talalay equation to determine the combination index (CI). A CI 0.9-1.1 was indicative of additivity while a CI <0.9 indicated synergism. The survival curves, S, were fit to the linear-quadratic model S=exp(−αD-βD2) to determine classical parameters of radiation sensitivity.
Combinatorial effect of RK-33 and radiation in lung cancer cell line, A549. Given the current treatment protocol for lung cancer patients, which includes chemotherapy and radiation, the cell killing abilities of RK-33 was evaluated in combination with radiation in a chemotherapy/radiation resistant lung cancer cell line, A549 (FIG. 7). […] For this experiment, RK-33 below the IC50 value was used to determine if there was any additive or synergistic effect. […]

In a further data set the test system is lung tumors in CRT mice. Briefly: RK-33 and radiation in CRT autochthonous lung tumor mice, microCT tumor volume. It is filed as in vivo. The source says: FIG. 11 is a bar graph showing the chemosensitization of RK-33 with radiation to reduce lung tumors in CRT mice. Following RK-33 and radiation treatment, the animals were imaged using microCT (data not shown). The bar graph depicts the reduction of lung tumor volume in n=8 animals per group. The tumor volumes were quantified from the CBCT data set using the image and volume contouring utility of the Pinnacle3 Radiation Therapy Planning software v.8.1y (Philips Inc., Madison, Wis.) used in the clinic for human patients. Each CBCT data set contains full 3D volumetric data for the tumor burden estimation.
Generating the CRT mice and drug treatment. As shown in the results, the functional utility of CRT mice was validated. CRT mice are generated from combinations of bi-transgenic mice; e.g., CT X CR. CRT mice were activated shortly after weaning, four-five weeks old, by doxycycline administered in their drinking water (up to 2 mg/ml) in a total volume of 350 ml to simultaneously activate both Twist1 and KrasG12D transgenes. Fresh doxycycline containing water was administered weekly. Ten weeks post transgene induction, the mice were imaged by microCT to determine tumor load. Induction of the transgenes and imaging the tumor load by microCT were continuous (weekly) till the end of the experiment. Following induction and establishment of lung tumors, RK-33 (1 mM equivalent to 40 mg/Kg) was injected intraperitoneally in combination with radiation at schedules described in the table below. The number of animals used in each group was 25.
MicroCT procedures. Presently a small animal radiation research platform for radiation treatment of animals was developed. […]
Thoracic image-guided irradiation. […] Fifteen Gy radiation calculated at the isocenter was delivered using a single posterior field. […]
Endpoints for in vivo experiments. […] Animals following treatment are monitored daily by animal care staff and 3×/week by investigators for signs of mortality and morbidity. […]

Another data set relates to H23. The experiment in a line: MTS assay, lung cancer cell line H23. It is filed as cell-based. Here is the method:
(§1) FIG. 5 is a plot showing the effect of RK-33 on two lung cancer cell lines. Lung cancer cell lines were incubated with different concentrations of RK-33. At day 3, MTS assays were performed to determine the percentage of metabolically active cells. The experiments were repeated in triplicate. The IC50 values for H23 and A549 are 3.5 and 5 μM respectively.
To study the effects of RK-33 on cell growth and proliferation, lung cancer cell lines (H23 and A549) were used for the initial studies. […] To the best of our knowledge, this is the first data set of evaluating the efficacy of a small molecule inhibitor of DDX3 to kill lung cancer cells.

Data set [1] concerns Cells engineered to express a hypoxia induced red fluorescent protein (tdTomato). The experiment in a line: Cell death under hypoxic conditions (CoCl2 hypoxia mimetic). The conditions noted are these: CoCl2 24 hours, then RK-33 72 hours. It is filed as cell-based. Here is the method:
Cells engineered to express a hypoxia induced red fluorescent protein (tdTomato) were incubated with CoCl2 (hypoxia mimetic compound) for 24 hours, following which RK-33 was added and incubated for 72 hours. Photomicrographs were taken at 20×. Experiments were repeated twice. Effect of hypoxia on the functional activity of RK-33 to induce cell death. During solid tumor biogenesis, regions of hypoxia develop within the tumor due to inadequate and poorly formed vasculature. […] In addition, some have posited that tumor hypoxia is a major limiting factor of the curability by SABR at lower radiation dose. […] To evaluate efficacy of RK-33 to induce cell death under hypoxic conditions, cells were incubated with CoCl2 (hypoxia mimetic compound) for 24 hours, following which RK-33 was added and incubated for 72 hours.

The nature of data set [2]: Toxicity of RK-33 in SCID mice, pathological examination after necropsy. It is filed as in vivo.
A further data set addresses T1, DDX3 (Homo sapiens, UniProt O00571).
T1 construct: made in house; host or cells: pET system (Novagen); E. coli is my own knowledge of the pET system
Briefly: DDX3 helicase unwinding assay with duplex oligos. It is filed as biochemical. To be noted: 100 μM RK-33, over a period of 80 minutes. The source says:
FIG. 4 is a chart showing RK-33 inhibits helicase activity of DDX3.
Generating small molecular inhibitors of DDX3 function. As loss of DDX3 function abrogated colony forming abilities along with increased expression in lung carcinoma samples, a search was initiated to identify molecules that could target a functional substrate binding site of DDX3 protein. Initial work generated a fused diimidazodiazepine ring molecule (RK-33) to target RNA helicase. To confirm the functional activity of RK-33 on DDX3, an in vitro assay was carried out to determine the effects of RK-33 on helicase activity. DDX3 protein was synthesized using the pET system from Novagen. Following DDX3 purification, the unwinding assays were performed using duplex oligos, purified DDX3 and RK-33. Quantification was done by evaluating the pixel density of the native duplex oligos and the unwound oligos.

Data set [3] can be described thus: Biodistribution of RK-33 in mice by LC/MS/MS. It is filed as in vivo. The conditions noted are these: I.P. single dose of 20 mg/kg; 30 minutes, 60 minutes and 24 hours. An excerpt:
FIG. 9 is a set of curves illustrating the biodistribution of RK-33 in mice at different time intervals using an LC/MS/MS method. A total of five mice per time point were used for this study.
Analysis of the toxicity of RK-33 in SCID mice. […] Subsequently, we carried out pharmacokinetics in multiple tissue compartments. For this a LC/MS/MS method was developed for determination of RK-33 in mouse plasma (FIG. 9-inset). Sample preparation involved acetonitrile precipitation and separation of RK-33 and the internal standard, temazepam, was achieved on a Waters Xterra column. […] The animals were injected I.P. (single dose of 20 mg/kg with five animals per arm) and the tissue harvested at different time intervals (30 minutes, 60 minutes and 24 hours) and analyzed.

The subject of another data set is A549. Briefly: MTS assay, lung cancer cell line A549. It is filed as cell-based. The procedure:
as §1, with “respectively. […] Experiments were performed in triplicate. To study the effects of RK-33 on cell growth and proliferation, lung cancer cell lines (H23 and A549) were used for the initial studies. […] To the best of our knowledge, this is the first data set of evaluating the efficacy of a small molecule inhibitor of DDX3 to kill lung cancer cells.” for “respectively.”

T1 sequence (O00571 whole entry): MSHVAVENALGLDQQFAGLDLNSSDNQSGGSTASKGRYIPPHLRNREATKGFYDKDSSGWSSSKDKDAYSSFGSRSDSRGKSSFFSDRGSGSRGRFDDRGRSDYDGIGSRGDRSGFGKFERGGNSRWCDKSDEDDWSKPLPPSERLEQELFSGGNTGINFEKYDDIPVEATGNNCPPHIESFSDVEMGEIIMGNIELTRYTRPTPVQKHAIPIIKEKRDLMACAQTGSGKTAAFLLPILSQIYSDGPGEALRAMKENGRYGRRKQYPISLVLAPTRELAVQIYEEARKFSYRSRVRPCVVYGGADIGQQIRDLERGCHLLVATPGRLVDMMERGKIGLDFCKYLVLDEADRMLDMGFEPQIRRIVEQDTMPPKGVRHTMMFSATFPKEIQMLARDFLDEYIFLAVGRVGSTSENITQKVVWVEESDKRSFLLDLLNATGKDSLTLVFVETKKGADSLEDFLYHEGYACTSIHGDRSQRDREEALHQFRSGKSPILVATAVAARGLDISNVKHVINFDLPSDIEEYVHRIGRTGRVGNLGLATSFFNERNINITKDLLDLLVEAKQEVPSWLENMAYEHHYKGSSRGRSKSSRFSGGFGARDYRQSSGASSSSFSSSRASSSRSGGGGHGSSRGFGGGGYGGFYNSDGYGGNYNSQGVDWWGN

For the molecule `COc1ccc(Cn2c3ncnc4c(ncn4Cc4ccc(OC)cc4)c-3nc2=O)cc1` [RK-33], in the data set on A549 cells, the “combination effect with radiation on cell death (Chou-Talalay)” value is reported as “significant synergistic effect”. The “tumor volume reduction, RK-33 combined with conventional fractionated radiation” value in the data set with lung tumors in CRT mice (3 Gy x10) is “no synergy”. Further, in the data set with lung tumors in CRT mice (RK-33 1 mM i.p. 3 times a week alone, microCT), the “tumor response, single agent” value is “stasis or perhaps slight regression”. Besides, the “tumor response, RK-33 combined with SABR” value in the data set with lung tumors in CRT mice (RK-33 1 mM i.p. 3 times a week, 1 week before and 1 week after 15 Gy whole thorax SABR, microCT and H&E) is on record as “dramatic tumor regression”. Moreover, the “effect on cell growth and proliferation” value in the data set with H23 (H23, 8 μM RK-33) is given as “efficiently ablate”; in the data set on A549 (A549, 8 μM RK-33) it was “efficiently ablate”. Also, the IC50 with H23 (Homo sapiens, NCI-H23, 72 h, H23, MTS at day 3) was found to be 3.5 µM; in the data set on A549 (Homo sapiens, 72 h, A549, MTS at day 3) it was 5 µM. Moreover, in data set [1], the “activity to induce cell death under hypoxic conditions” value is “retain its activity both under normoxic and hypoxic conditions”. For the same molecule, the “pathological examination of all tissues following necropsy” value in data set [2] is given as “no tissue damage”. Moreover, the “reduction of unwinding of the duplex oligos” value on DDX3 is given as “at least 60%”. The brain exposures result in data set [3] is “well managed”. Moreover, the target tissue concentrations result in data set [3] is reported as “well above effective killing concentrations”. For the same molecule, the “sensitivity of A549 cells in MTS assay” value in the data set on A549 is “sensitive”.
For the molecule `N.N.O=C([O-])C1(C(=O)[O-])CCC1.[Pt+2]` [carboplatin, reference compound], the “sensitivity of A549 cells in MTS assay” value with A549 was “resistant”.

Source of the values: US9114158B2, “Compounds and methods of use in ablative radiotherapy” (The Johns Hopkins University, priority 2011, dated 2015).
